Assay results as given in patent US7041705B2, “Injectable aqueous dispersions of propofol” (Jagotec AG, priority 1998, dated 2006).
Counter-ions that a name gives are not always drawn. Like-named read-outs stand apart in the source and are kept apart here.

Tested on: human whole-blood (erythrocytes)
Conditions: both
Experimental: In-vitro evaluation of the hemolytic influence of the preparations of this invention on human whole-blood was determined as a further guide to selecting formulations with a low tendancy to produce irritation around the site of injection. The hemolytic potential of the formulation on blood was evaluated by the assay of erythrocyte cytoplasmic marker enzyme, lactate dehydrogenase (LDH). Measurement of erythrocyte cytoplasmic marker enzyme. LDH, which escapes from the leaky or ruptured erythrocytes into tie plasma compartment of the blood, is one of the commonly used quantitative assays described in literature for evaluation of hemolytic potential of injectable formulations (Stenz and Bauer, 1996). The blood was obtained from male or female Caucasian human volunteers of 18 to 65 years age and stabilized with sodium heparin. The test formulation was mixed with an equal volume of human whole blood and incubated at 37° C. for about 1 hour. The mixture was then held at ambient temperature for 30 min. followed by centrifugation at 1500 rpm for 10 min. The level of LDH in the supernatant was determined by a standard procedure known to the scientists skilled in this art.

## CCCCc1oc2ccccc2c1C(=O)c1cc(I)c(OCCN(CC)CC)c(I)c1 [Amiodarone hydrochloride]
1.8 mg/mL
  LDH: 673 IU/L
50 mg/mL
  LDH: 8190 IU/L
